Molecular target: T1, Cytochrome P450 BM3 (CYP102A1) mutant M11 (Priestia megaterium, UniProt P14779, E144G/E268V/E65G/F82I/F88V/G416S/H286Y/L189Q/R48L/Y199C)
T1 construct: heme domain (stop codon introduced after residue 473)
Test: X-ray crystal structure ([…] Å) and UV/Vis difference spectral titration
Type: binding

T1 sequence (P14779 1-474 R48L/E65G/F82I/F88V/E144G/L189Q/Y199C/E268V/H286Y/G416S): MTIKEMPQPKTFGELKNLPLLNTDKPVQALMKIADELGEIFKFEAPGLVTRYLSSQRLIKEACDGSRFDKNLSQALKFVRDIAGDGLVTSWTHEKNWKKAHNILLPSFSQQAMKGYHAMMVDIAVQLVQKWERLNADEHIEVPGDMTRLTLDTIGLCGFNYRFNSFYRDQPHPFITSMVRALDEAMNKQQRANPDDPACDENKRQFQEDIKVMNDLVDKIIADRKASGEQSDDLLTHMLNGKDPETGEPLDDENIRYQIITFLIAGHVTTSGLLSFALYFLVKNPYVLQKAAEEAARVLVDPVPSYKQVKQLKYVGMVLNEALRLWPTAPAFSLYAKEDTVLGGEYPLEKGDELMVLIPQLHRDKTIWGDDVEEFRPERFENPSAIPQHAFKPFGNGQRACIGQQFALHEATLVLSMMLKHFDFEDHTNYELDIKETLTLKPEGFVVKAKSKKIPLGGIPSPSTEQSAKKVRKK

## O[C@@H](CS)[C@@H](O)CS (racemic) [DTT, dithiothreitol]
  Kd: 56.8 ± 1.3 µM

— PMC6534296, “Structural analysis of Cytochrome P450 BM3 mutant M11 in complex with dithiothreitol” (PLoS ONE, 2019)
